According to patent US7229986B2, “Melanin-concentrating hormone antagonist” (Takeda Pharmaceutical Company Ltd., priority 2000, dated 2007):
Structures can show the parent of a compound that is named as a salt.

Target: SLC-1 (UniProt Q99705)
Assay: Determination of antagonist activity using GTPγS binding assay
Format: biochemical, human, rat
Conditions: inhibition of MCH-stimulated [35S]-GTPγS binding, SLC-1 expressing CHO cell membrane fractions, 25° C., 1 hour
Description: Membrane fraction was prepared by the following method, using the human SLC-1 expressing CHO cell clone 57 obtained in Reference Example 1-10, and the rat SLC-1 expressing CHO cell clone 44 obtained in Reference Example 1-4.
The human and rat SLC-1 expressing CHO cells (1×10^8) were scraped in buffer saline phosphate (pH 7.4) to which 5 mM EDTA (ethylenediaminetetraacetic acid) had been added, and centrifuged. 10 ml of homogenized buffer (10 mM NaHCO3, 5 mM EDTA, pH 7.5) was added to the cell pellets, and they were homogenized using a Polytron homogenizer. […]
After this reaction mixture was allowed to react at 25° C. for 1 hour under stirring, it was filtered under vacuum using a glass filter (GF-C), then the filter was washed 3 times with 300 μl of washing solution (50 mM Tris-HCl buffer solution pH 7.5). 50 ml of liquid scintillator was added to the glass filter, and residual radioactivity was determined using a liquid scintillation counter.
The IC50 value of the compound was calculated from the binding inhibition rate (%), based on the definition that the binding inhibition rate (%)=(radioactivity when compound and MCH were added−radioactivity when DMSO solution was added)/(radioactivity when MCH was added−radioactivity when DMSO solution was added)×100.

Row | IC50 [µM] | SMILES
1 | 0.3 | CN(C)CCCc1ccc2c(c1)CCCN2C(=O)c1ccc(-c2ccccc2)cc1 [Example 1, 3-[1-([1,1′-Biphenyl]-4-ylcarbonyl)-1,2,3,4-tetrahydro-6-quinolinyl]-N,N-dimethyl-1-propanamine]
2 | 0.02 | CN(C)C/C=C/c1ccc2c(c1)CCCN2C(=O)c1ccc(-c2ccc(Cl)cc2)cc1 [Example 5, (E)-3-[1-[(4′-Chloro[1,1-biphenyl]-4-yl)carbonyl]-1,2,3,4-tetrahydro-6-quinolinyl]-N,N-dimethyl-2-propen-1-amine]

Test system: not given
Assay: not given
Conditions: not given

Row | melting point | SMILES
3 | 177 to 178 °C | CCCN(CCC)CCc1ccc2c(c1)N(Cc1cccc3ccccc13)CCO2.Cl
4 | 248 to 252 °C (dec.) | CN1CCc2ccc(C(=O)CCCN3CCC(c4ccc(Cl)cc4)CC3)cc2CC1 (as salt: HCl) (hydrate or solvate) [Example 35, 4-[4-(4-Chlorophenyl)-1-piperidinyl]-1-(3-methyl-2,3,4,5-tetrahydro-1H-3-benzazepin-7-yl)-1-butanone]
5 | 243 to 247 °C (dec.) | O=C(CCCN1CCC(c2ccc(Cl)cc2)CC1)c1ccc2c(c1)CCNCC2 (as salt: HCl) [Example 34, 4-[4-(4-Chlorophenyl)-1-piperidinyl]-1(2,3,4,5-tetrahydro-1H-3-benzazepin-7-yl)-1-butanone]
6 | 112 to 113 °C | CN(C)C/C=C/c1ccc2c(c1)N(C(=O)c1ccc(-c3ccccc3)cc1)CCCC2 (as salt: hydrochloride) [Example 2, (E)-3-[1-([1,1′-Biphenyl]-4-ylcarbonyl)-2,3,4,5-tetrahydro-1H-1-benzazepin-8-yl]-N,N-dimethyl-2-propen-1-amine hydrochloride]
7 | 84 to 86 °C | CN(C)CCCc1ccc2c(c1)N(C(=O)c1ccc(-c3ccccc3)cc1)CCCC2 (as salt: hydrochloride) [Example 3, 3-[1-([1,1′-Biphenyl]-4-ylcarbonyl)-2,3,4,5-tetrahydro-1H-1-benzazepin-8-yl]-N,N-dimethyl-1-propanamine hydrochloride]
8 | 130 to 133 °C | CCCN(CCC)CCc1ccc2c(c1)N(S(=O)(=O)c1ccc(Cl)cc1)CCO2 (as salt: succinate) [Example 137, 4-(4-Chlorobenzenesulfonyl)-3,4-dihydro-6-[2-(N,N-dipropylamino)ethyl]-2H-1,4-benzoxazine succinate]
9 | 100 to 101 °C | CN(C)CCCc1ccc2c(c1)CCCN2C(=O)c1ccc(-c2ccccc2)cc1 [Example 1, 3-[1-([1,1′-Biphenyl]-4-ylcarbonyl)-1,2,3,4-tetrahydro-6-quinolinyl]-N,N-dimethyl-1-propanamine]
10 | 162 to 164 °C | CN(C)C/C=C/c1ccc2c(c1)CCCN2C(=O)c1ccc(-c2ccc(Cl)cc2)cc1 [Example 5, (E)-3-[1-[(4′-Chloro[1,1-biphenyl]-4-yl)carbonyl]-1,2,3,4-tetrahydro-6-quinolinyl]-N,N-dimethyl-2-propen-1-amine]
11 | 141 to 143 °C | O=C(c1ccc(-c2ccc(Cl)cc2)cc1)N1CCCc2cc(/C=C/CN3CCCCC3)ccc21 [Example 6, 1-[(4′-Chloro[1,1-biphenyl]-4-yl)carbonyl]-6-[(E)-3-piperidino-1-propenyl]-1,2,3,4-tetrahydroquinoline]
12 | 174 to 176 °C | CN(C)C/C=C/c1ccc2c(c1)CCN2C(=O)c1ccc(-c2ccccc2)cc1 [Example 7, (E)-3-[1-[([1,1′-Biphenyl]-4-yl)carbonyl]-2,3-dihydro-1H-indol-5-yl]-N,N-dimethyl-2-propen-1-amine]
13 | 164 to 166 °C | COc1ccc(COc2ccc(C(=O)N3CCc4cc(/C=C/CN(C)C)ccc43)cc2)cc1 [Example 9, (E)-3-[1-[4-[(4-Methoxybenzyl)oxy]benzoyl]-2,3-dihydro-1H-indol-5-yl]-N,N-dimethyl-2-propen-1-amine]
14 | 131 to 132 °C | O=C(CCC(=O)N1CCC(c2ccc(Cl)cc2)CC1)c1ccc2c(c1)CCN(C(=O)C(F)(F)F)CC2 [Example 14, 4-[4-(4-Chlorophenyl)-1-piperidinyl]-4-oxo-1-[3-(trifluoroacetyl)-2,3,4,5-tetrahydro-1H-3-benzazepin-7-yl]-1-butanone]
15 | 148 to 149 °C | O=C(CCC(=O)N1CCC(c2ccc(Cl)cc2)CC1)c1ccc2c(c1)CCNCC2 [Example 15, 4-[4-(4-Chlorophenyl)-1-piperidinyl]-4-oxo-1-(2,3,4,5-tetrahydro-1H-3-benzazepin-7-yl)-1-butanone]
16 | 143 to 145 °C | CN1CCc2ccc(C(=O)CCC(=O)N3CCC(c4ccc(Cl)cc4)CC3)cc2CC1 [Example 16, 4-[4-(4-Chlorophenyl)-1-piperidinyl]-4-oxo-1-(3-methyl-2,3,4,5-tetrahydro-1H-3-benzazepin-7-yl)-1-butanone]
17 | 132 to 133 °C | O=C(CCC(=O)N1CCC(c2ccccc2)CC1)c1ccc2c(c1)CCN(C(=O)C(F)(F)F)CC2 [Example 31, 4-Oxo-4-(phenyl-1-piperidinyl)-1-[3-(trifluoroacetyl)-2,3,4,5-tetrahydro-1H-3-benzazepin-7-yl]-1-butanone]
18 | 114 °C | O=C(CCC(=O)N1CCC(c2ccccc2)CC1)c1ccc2c(c1)CCNCC2 [Example 32, 4-Oxo-4-(phenyl-1-piperidinyl)-1-(2,3,4,5-tetrahydro-1H-3-benzazepin-7-yl)-1-butanone]
19 | 121 to 122 °C | CCCN(CCC)C(=O)Cc1ccc2c(c1)NC(=O)CO2 [Example 133, N,N-Dipropyl-(3,4-dihydro-2H-1,4-benzoxazine-3-oxo-6-yl) acetamide]
20 | 123 to 125 °C | O=C(CCC(=O)N1CCC(c2ccc(Cl)cc2)CC1)c1ccc2c(c1)CCN(CC1CCCO1)CC2 (stereo not shown) [Example 194, 4-[4-(4-Chlorophenyl)-1-piperidinyl]-4-oxo-1-[3-(tetrahydro-2-furanylmethyl)-2,3,4,5-tetrahydro-1H-3-benzazepin-7-yl]-1-butanone]
21 | 128 to 130 °C | O=C(CCC(=O)N1CCC(c2ccc(Cl)cc2)CC1)c1ccc2c(c1)CCN(C1CCCCC1)CC2 [Example 195, 4-[4-(4-Chlorophenyl)-1-piperidinyl]-1-(3-cyclohexyl-2,3,4,5-tetrahydro-1H-3-benzazepin-7-yl)-4-oxo-1-butanone]
22 | 112 to 113 °C | O=C(CCCC(=O)N1CCC(c2ccc(Cl)cc2)CC1)c1ccc2c(c1)CCNCC2 [Example 205, 5-[4-(4-Chlorophenyl)-1-piperidinyl]-5-oxo-1-(2,3,4,5-tetrahydro-1H-3-benzazepin-7-yl)-1-pentanone]
